The record followed here is patent US20260242395A1, “AMINOHETEROARYL KINASE INHIBITORS” (ALLORION THERAPEUTICS INC, priority 2022, published 2026).

For test [1], the target named is T1, CDK4/CyclinD1 (Homo sapiens, UniProt P11802).
T1 construct: purchased ProQinase 0142-0143-1
The test is described as follows: CDK4/CyclinD1 kinase inhibitory activity (Caliper mobility shift). Format: biochemical. As to conditions: enzyme 20 nM, ATP 672 uM, 28° C. 30 min; read-out: CDK4/Cyclin D1 IC50. How it is done:
CDK4/CyclinD1 kinase inhibitory activity (IC50): 5 μl of various dilutions of test compound in 1× kinase buffer (20 mM HEPES, pH 7.5, 10 mM MgCl2, 2 mM DTT and 0.01% Triton X-100) was mixed with 10 μL of either CDK4/Cyclin D1 (ProQinase, 0142-0143-1 #, final concentration 20 nM in 1× Kinase buffer) or in 384 plates and incubated at room temperature for 10 min. To initiate each reaction, 10 μL of peptide solution containing fluorescently-labeled-peptide 8(5-FAM-IPTSPITTTYFFFKKK-COOH, GL, 112396 #, final concentration 3000 nM) and ATP (final concentration 672 uM for CDK4/CyclinD1) in 1×Kinase buffer was added to each of the wells containing test compound and CDK4/CyclinD1 mixture. The reaction is then allowed to proceed at 28° C. for 30 min and terminated by the addition of 25 μL stop buffer (100 mM HEPES pH 7.5, 50 mM EDTA, 0.2% Coating Reagent #3 (Perkin Elmer, 760050 #) and 0.015% Brij-35).
(§1) Following the kinase reaction, Caliper EZ reader II (Downstream voltages: −500V, Upstream voltages: −2250V, Base pressure −0.5 PSI, Screen pressure −1.2 PSI) was used to separate the phosphorylated (product) and the unphosphorylated (substrate) fluorescently-labeled peptide 8 based on their different mobility. Both substrate and product were measured and the ratio of these values were used to generate % conversion by Caliper EZ reader II. These conversion values were then transformed into % inhibition of kinase activity using the formula: % Inhibition=[(MA−X)/(MA−MI)]×100% where MA=conversion value of DMSO only controls, MI=conversion value of no enzyme controls and X=conversion value at any given compound dose. IC50 values were then calculated by plotting dose-response curves and then using the XLfit application in Excel software.

Test [2] has as its target T2, CDK6/CyclinD3 (Homo sapiens, UniProt Q00534).
T2 construct: purchased Carna 04-107
The test is described as follows: CDK6/CyclinD3 kinase inhibitory activity (Caliper mobility shift). Format: biochemical. The following applies: enzyme 15 nM, ATP 800 μM, 28° C. 30 min; read-out: CDK6/Cyclin D3 IC50. As to the method:
CDK6/CyclinD3 kinase inhibitory activity (IC50): 5 μl of various dilutions of test compound in 1× kinase buffer (50 mM HEPES pH 7.5, 10 mM MgCl2, 2 mM DTT and 0.01% Brij-35) was mixed with 10 μL of CDK6/CyclinD3 (Carna, 04-107 #, final concentration 15 nM in 1× Kinase buffer) in 384 plates and incubated at room temperature for 10 min. To initiate each reaction, 10 μL of peptide solution containing fluorescently-labeled -peptide 8(5-FAM-IPTSPITTTYFFFKKK-COOH, GL, 112396 #, final concentration 3000 nM) and ATP (final concentration 800 μM for CDK6/CyclinD3 in 1× Kinase buffer was added to each of the wells containing test compound and CDK6/CyclinD3. The reaction is then allowed to proceed at 28° C. for 30 min and terminated by the addition of 25 μL stop buffer (100 mM HEPES pH 7.5, 50 mM EDTA, 0.2% Coating Reagent #3 (Perkin Elmer, 760050 #) and 0.015% Brij-35).
as §1

T1 sequence (P11802 whole entry): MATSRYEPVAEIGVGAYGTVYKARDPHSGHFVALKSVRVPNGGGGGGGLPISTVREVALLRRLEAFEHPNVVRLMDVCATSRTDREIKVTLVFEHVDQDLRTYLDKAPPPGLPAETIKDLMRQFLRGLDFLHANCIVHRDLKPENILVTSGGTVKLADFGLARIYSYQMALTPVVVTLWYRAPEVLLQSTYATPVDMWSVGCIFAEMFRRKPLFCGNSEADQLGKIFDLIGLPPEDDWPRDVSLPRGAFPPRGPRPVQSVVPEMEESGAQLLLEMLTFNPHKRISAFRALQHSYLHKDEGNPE
T1 sequence (P24385 whole entry partner): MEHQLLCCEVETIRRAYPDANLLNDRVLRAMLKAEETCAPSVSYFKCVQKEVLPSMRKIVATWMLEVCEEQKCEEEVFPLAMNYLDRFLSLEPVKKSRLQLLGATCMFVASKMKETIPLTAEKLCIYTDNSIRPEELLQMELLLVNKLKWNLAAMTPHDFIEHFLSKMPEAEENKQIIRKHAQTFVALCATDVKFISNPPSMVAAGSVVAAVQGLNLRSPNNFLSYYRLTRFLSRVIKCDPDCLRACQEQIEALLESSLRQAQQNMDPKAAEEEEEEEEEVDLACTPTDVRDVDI
T2 sequence (Q00534 whole entry): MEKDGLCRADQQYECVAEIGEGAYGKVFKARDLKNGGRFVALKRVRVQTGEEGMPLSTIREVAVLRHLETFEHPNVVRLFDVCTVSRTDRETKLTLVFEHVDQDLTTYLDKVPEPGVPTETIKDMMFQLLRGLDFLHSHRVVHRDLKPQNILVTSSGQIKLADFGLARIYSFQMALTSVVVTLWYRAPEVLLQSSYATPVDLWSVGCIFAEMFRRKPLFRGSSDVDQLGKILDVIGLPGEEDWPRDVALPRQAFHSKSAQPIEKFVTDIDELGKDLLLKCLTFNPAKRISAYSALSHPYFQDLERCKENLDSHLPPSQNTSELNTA
T2 sequence (P30281 whole entry partner): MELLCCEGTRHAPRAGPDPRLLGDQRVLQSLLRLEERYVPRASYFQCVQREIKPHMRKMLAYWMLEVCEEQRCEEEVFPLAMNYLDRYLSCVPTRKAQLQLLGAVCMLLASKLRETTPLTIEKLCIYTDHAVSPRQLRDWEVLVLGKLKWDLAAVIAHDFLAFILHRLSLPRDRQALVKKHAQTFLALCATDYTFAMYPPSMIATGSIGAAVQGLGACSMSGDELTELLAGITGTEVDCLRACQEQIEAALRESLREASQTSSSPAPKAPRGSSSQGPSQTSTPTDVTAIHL

With `[2H]c1nc(N[C@@H]2CCOC[C@H]2O)nc(-c2cc(F)c3nc(C)c(C(C)O)c(C)c3c2)c1F` (single isomer, unassigned) [Example 84a], the results for the IC50 in test [1] and in test [2] were under 10 nM and 10 to 100 nM, respectively.
Turning to `Cc1nc2c(F)cc(-c3nc(N[C@@H]4CCOC[C@H]4O)ncc3Cl)cc2c2c1CC1(CC1)NC2` [Example 69], the figures for the IC50 in test [1] and in test [2] were under 10 nM and 100 to 1000 nM, respectively.
The like results for `Cc1cc(C(C)(C)O)nc2c(F)cc(-c3nc(N[C@@H]4CCOC[C@H]4O)ncc3F)cc12` [Example 96] were, in that order, 10 to 100 nM and at least 1000 nM.
As for `[2H]C1([2H])c2cnc3c(F)cc(-c4nc(N[C@@H]5CCOC[C@H]5O)ncc4F)cc3c2CNC1(C)C` [Example 110], the IC50 in test [1] was under 10 nM; in test [2] it was 100 to 1000 nM.
The like results for `Cc1nc2c(F)cc(-c3cc(N[C@@H]4CCOC[C@H]4O)ncc3F)cc2cc1C(C)(C)O` [Example 78] were, in that order, under 10 nM and 100 to 1000 nM.
The like results for `[2H]c1nc(N[C@@H]2CCOC[C@H]2O)nc(-c2cc(F)c3nc(C)c(C(C)NC4CC4)cc3c2)c1F` (single isomer, unassigned) [Example 77a] were, in that order, under 10 nM and 100 to 1000 nM.
In the same order, the values of `CC1(O)CCc2nc3c(F)cc(-c4nc(N[C@@H]5CCOC[C@H]5O)ncc4Cl)cc3cc21` (single isomer, unassigned) [Example 38a] are under 10 nM and 10 to 100 nM.
For `CNC(C)c1cnc2c(F)cc(-c3nc(N[C@@H]4CCOC[C@H]4O)ncc3Cl)cc2c1Cl` (single isomer, unassigned) [Example 63a], the IC50 was in the range of 10 to 100 nM in test [1] and 100 to 1000 nM in test [2].
The like results for `Cc1nc2c(F)cc(-c3ccnc(N[C@@H]4CCOC[C@H]4O)n3)cc2c2c1CC(C)(C)NC2` [Example 99] were, in that order, 10 to 100 nM and at least 1000 nM.
Turning to `[2H]c1nc(N[C@@H]2CCOC[C@H]2O)nc(-c2cc(F)c3nc([2H])c(C(C)(C)O)c(C)c3c2)c1F` [Example 95], the values for the IC50 in test [1] and in test [2] were under 10 nM and 10 to 100 nM, respectively.
The like results for `CC1(O)CCc2nc3c(F)cc(-c4nc(N[C@@H]5CCOC[C@H]5O)ncc4Cl)cc3cc21` (single isomer, unassigned) [Example 38b] were, in that order, under 10 nM and 10 to 100 nM.
The like results for `CNC(C)c1cnc2c(F)cc(-c3nc(N[C@@H]4CCOC[C@H]4O)ncc3Cl)cc2c1C` (single isomer, unassigned) [Example 48a] were, in that order, under 10 nM and 100 to 1000 nM.
In the same order, the values of `CNC(C)c1cc2cc(-c3nc(N[C@@H]4CCOC[C@H]4O)ncc3F)cc(F)c2nc1C` (single isomer, unassigned) [Example 54b] are under 10 nM and 100 to 1000 nM.
Take `CC(C)(O)C1COc2c(F)cc(-c3nc(N[C@@H]4CCOC[C@H]4O)ncc3Cl)cc2C1` (stereo partly shown) [Example 46]: the IC50 in test [1] is under 10 nM; in test [2], 100 to 1000 nM.
As to `CC(NC1CC1)c1cnc2c(F)cc(-c3nc(N[C@@H]4CCOC[C@H]4O)ncc3Cl)cc2c1Cl` (single isomer, unassigned) [Example 90b], the values for the IC50 in test [1] and in test [2] were under 10 nM and 100 to 1000 nM, respectively.
In the same order, the values of `O[C@@H]1COCC[C@H]1Nc1ncc(Cl)c(-c2cc(F)c3ncc(C4(O)CCC4)cc3c2)n1` [Example 16, (3S,4R)-4-((5-chloro-4-(8-fluoro-3-(1-hydroxycyclobutyl)quinolin-6-yl)pyrimidin-2-yl)amino)tetrahydro-2H-pyran-3-ol] are under 10 nM and 100 to 1000 nM.
In the same order, the values of `CCC(O)c1cc2cc(-c3nc(N[C@@H]4CCOC[C@H]4O)ncc3Cl)cc(F)c2nc1C` (single isomer, unassigned) [Example 39b] are under 10 nM and 100 to 1000 nM.
The like results for `[2H]c1nc(N[C@@H]2CCOC[C@H]2O)nc(-c2cc(F)c3nc(C)c4c(c3c2)CNC(C)(C)C4)c1Cl` [Example 103] were, in that order, under 10 nM and 100 to 1000 nM.
Consider `CCC(O)c1cc2cc(-c3nc(N[C@@H]4CCOC[C@H]4O)ncc3Cl)cc(F)c2nc1C` (single isomer, unassigned) [Example 39a], for which the IC50 in test [1] was under 10 nM; in test [2], 100 to 1000 nM.
Regarding `CC(O)c1cnc2c(F)cc(-c3nc(N[C@@H]4CCOC[C@H]4O)ncc3Cl)cc2c1Cl` (single isomer, unassigned) [Example 40b], the IC50 was under 10 nM in test [1] and 100 to 1000 nM in test [2].
In the case of `[2H]c1nc(N[C@@H]2CCOC[C@H]2O)nc(-c2cc(F)c3nc(C)c(C(C)NC4CC4)cc3c2)c1F` (single isomer, unassigned) [Example 77b], the results for the IC50 in test [1] and in test [2] were under 10 nM and 100 to 1000 nM, respectively.
For `CNC(C)c1cc2cc(-c3nc(N[C@@H]4CCOC[C@H]4O)ncc3F)cc(F)c2nc1C` (single isomer, unassigned) [Example 54a], the IC50 is under 10 nM in test [1] and 100 to 1000 nM in test [2].
As to `Cc1c(C(C)NC2CC2)cnc2c(F)cc(-c3nc(N[C@@H]4CCOC[C@H]4O)ncc3F)cc12` (single isomer, unassigned) [Example 93b], the figures for the IC50 in test [1] and in test [2] were under 10 nM and 100 to 1000 nM, respectively.
The like results for `Cc1nc2c(F)cc(-c3nc(N[C@@H]4CCOC[C@H]4O)ncc3F)cc2cc1C(C)(C)O` [Example 51] were, in that order, under 10 nM and 100 to 1000 nM.
For `CC1(C)NCCc2cnc3c(F)cc(-c4nc(N[C@@H]5CCOC[C@H]5O)ncc4Cl)cc3c21` [Example 109], the IC50 is under 10 nM in test [1] and 100 to 1000 nM in test [2].
`CNC(C)c1cnc2c(F)cc(-c3nc(N[C@@H]4CCOC[C@H]4O)ncc3F)cc2c1Cl` (single isomer, unassigned) [Example 64b]: the IC50 in test [1] lay in the range of 10 to 100 nM; in test [2] it was 100 to 1000 nM.
The like results for `CC(NC1CC1)c1cnc2c(F)cc(-c3nc(N[C@@H]4CCOC[C@H]4O)ncc3Cl)cc2c1Cl` (single isomer, unassigned) [Example 90a] were, in that order, 10 to 100 nM and 100 to 1000 nM.
In the same order, the values of `CC(C)(O)c1cnc2c(F)cc(-c3ccnc(N[C@@H]4CCOC[C@H]4O)n3)cc2c1Cl` [Example 97] are 10 to 100 nM and 100 to 1000 nM.
`Cc1c(C(C)NC2CC2)cnc2c(F)cc(-c3nc(N[C@@H]4CCOC[C@H]4O)ncc3F)cc12` (single isomer, unassigned) [Example 93a]: the IC50 in test [1] fell in the range of 10 to 100 nM; in test [2], 100 to 1000 nM.
For `Cc1nc2c(F)cc(-c3ccnc(N[C@@H]4CCOC[C@H]4O)n3)cc2c(C)c1C(C)O` (single isomer, unassigned) [Example 82b], the IC50 in test [1] lay within 10 to 100 nM; in test [2] it was 100 to 1000 nM.
In the same order, the values of `Cc1c(C(C)(C)O)nnc2c(F)cc(-c3nc(N[C@@H]4CCOC[C@H]4O)ncc3Cl)cc12` [Example 87] are 10 to 100 nM and 100 to 1000 nM.
In the same order, the values of `Cc1n[nH]c2c1-c1cc(-c3nc(N[C@@H]4CCOC[C@H]4O)ncc3Cl)ccc1OC2` [Example 13, (3S,4R)-4-((5-chloro-4-(1-methyl-3,4-dihydrochromeno[3,4-c]pyrazol-8-yl)pyrimidin-2-yl)amino)tetrahydro-2H-pyran-3-ol] are 10 to 100 nM and 100 to 1000 nM.
On to `[2H]c1nc2c(F)cc(-c3nc(N[C@@H]4CCOC[C@H]4O)ncc3Cl)cc2c2c1CC1(CC1)NC2` [Example 72], for which the IC50 in test [1] is under 10 nM; in test [2], 100 to 1000 nM.
The like results for `CC(C)(O)c1cnc2c(F)cc(-c3nc(Nc4ccc(-c5cn[nH]c5)cn4)ncc3F)cc2c1Cl` [Example 55] were, in that order, under 10 nM and at least 1000 nM.
The like results for `O[C@@H]1COCC[C@H]1Nc1ncc(Cl)c(-c2cc(F)c3ncc4c(c3c2)C2CCC(C4)N2)n1` (single isomer, unassigned) [Example 20a] were, in that order, 100 to 1000 nM and at least 1000 nM.
